Source: the supplement of paper PMC3974653
Counter-ions that a name gives are not always drawn.

Test system: MTT (mouse pheochromocytoma)
Assay: IC50 of cell viability (ATP content)
Conditions: (24 or 48 h)
Method in brief: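 Library compounds were tested at 8 final concentrations (0.5 nM to 46 µM) on MTT mouse pheochromocytoma cells for 24 or 48 hrs, with readout by CellTiter-Glo ATP luminescence. Signals were normalised with positive-control wells at 100% and DMSO wells at 0%. IC50 values were obtained by a four-parameter logistic fit.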

For `O=C(NCNC(=O)NC1C(=O)NC(=O)N1CO)NC1C(=O)NC(=O)N1CO` (configuration not stated) [Imidazolidinyl urea], the “IC50 of cell viability” value was over 46 µM.
With `CN1CCC(O)(c2ccc(F)cc2)C(C(=O)c2ccc(F)cc2)C1` (configuration not stated) [Flazalone] the “IC50 of cell viability” value was over 46 µM.
`Clc1cccc(C(c2ccc3nc[nH]c3c2)n2ccnc2)c1` (configuration not stated) [LIAROZOLE] was tested, and the “IC50 of cell viability” value was over 46 µM.
With `COc1cc(CC(C)N)c(OC)cc1Br` (single isomer, unassigned; (-)) [(-)-4-Bromo-2,5-dimethoxyamphetamine] the “IC50 of cell viability” value was over 46 µM.
With `COc1cc(C)c(Cc2cnc(N)nc2N)cc1OC` [ORMETOPRIM] the “IC50 of cell viability” value was over 46 µM.
In the case of `CC(Cc1ccccc1)N(C)C` (configuration not stated) [DIMETAMFETAMINUM], the “IC50 of cell viability” value is reported as over 46 µM.
With `CC[C@@H](CO)NC(=O)[C@H]/1CN(C)[C@@H]2CC3=C[NH]C4=C3C(=CC=C4)\C2=C1` [METHYLERGOMETRINE] the “IC50 of cell viability” value was over 46 µM.
In the case of `Nc1ccc(Cl)cc1` [p-Chloroaniline], the “IC50 of cell viability” value is reported as over 46 µM.
With `Cc1c(Cl)c(=O)oc2cc(OP(=O)(OCCCl)OCCCl)ccc12` [Haloxon] the “IC50 of cell viability” value was over 46 µM.
In the case of `CNCC(=O)c1ccc(O)c(O)c1` [Adrenone], the “IC50 of cell viability” value is reported as over 46 µM.
`Cc1onc(-c2ccccc2)c1C(=O)N[C@@H]1C(=O)N2C1SC(C)(C)[C@@H]2C(=O)[O-]` (some centres not stated) [Oxacillin sodium salt] was tested, and the “IC50 of cell viability” value was over 46 µM.
`O=C(O)CNC(=O)c1ccccc1I` [IODOHIPPURATE SODIUM, I-123] was tested, and the “IC50 of cell viability” value was over 46 µM.
In the case of `Cc1ncc(CNC(=O)N(CCCl)N=O)c(N)n1` [NIMUSTINE], the “IC50 of cell viability” value is reported as over 46 µM.
With `CC(=O)OC1(c2ccccc2)CCN(CCc2ccccc2)CC1` [1-(2-Phenylethyl)-4-phenyl-4-acetoxypiperidine] the “IC50 of cell viability” value was over 46 µM.
For `CC(C)CCCC(C)CCCC(C)CCCCC(C)CCCC(C)CCCC(C)C` (configuration not stated) [HEXAMETHYLTETRACOSANE], the “IC50 of cell viability” value was over 46 µM.
In the case of `CN(C)CC/C=C1\c2ccccc2CSc2ccccc21` [Dosulepin hydrochloride], the “IC50 of cell viability” value is reported as over 46 µM.
`N[S+](=O)([O-])Cc1noc2ccccc12` [Zonisamide] was tested, and the “IC50 of cell viability” value was over 46 µM.
For `COc1ccc(/C=C/C(=O)c2ccc(OC)cc2OC)cc1` [Metochalcone], the “IC50 of cell viability” value was over 46 µM.
For `S=P(N1CC1)(N1CC1)N1CC1` [Thiotepa], the “IC50 of cell viability” value was over 46 µM.
`CNC(C)(C)Cc1ccccc1` [Mephentermine hemisulfate] was tested, and the “IC50 of cell viability” value was over 46 µM.
`CC1=C(/C=C/C(C)=C/C=C/C(C)=C/C=C/C=C(C)/C=C/C=C(C)/C=C/C2=C(C)CCCC2(C)C)C(C)(C)CCC1` [beta-CAROTENE] was tested, and the “IC50 of cell viability” value was over 46 µM.
For `N[S+]([O-])(=O)C1=C(Cl)C=C2NC(N[S+]([O-])(=O)C2=C1)C3CC\4CC3\C=C4` (configuration not stated) [CYCLOTHIAZIDE], the “IC50 of cell viability” value was over 46 µM.
For `CN(C)CCc1c[nH]c2ccc(C[S+](=O)([O-])N3CCCC3)cc12` [ALMOTRIPTAN], the “IC50 of cell viability” value was over 46 µM.
With `Cc1cc(N[S+](=O)([O-])c2ccc(N)cc2)no1` [Sulfamethoxazole] the “IC50 of cell viability” value was over 46 µM.
For `C[C@@H](CN(C)C)CN1c2ccccc2CCc2ccccc21` [Trimipramine maleate salt], the “IC50 of cell viability” value was over 46 µM.
For `C#C[C@]1(O)CC[C@H]2[C@@H]3CCC4=CCCC[C@@H]4[C@H]3C(=C)C[C@@]21CC` [DESOGESTREL], the “IC50 of cell viability” value was over 46 µM.
For `O=C([O-])c1nc(O)nc(O)n1` [OTERACIL POTASSIUM], the “IC50 of cell viability” value was over 46 µM.
`Cl\C1=C(/Cl)C2(Cl)C3C4CC(C5OC45)C3C1(Cl)C2(Cl)Cl` (configuration not stated) [ENDRIN] was tested, and the “IC50 of cell viability” value was over 46 µM.
With `C=CCC1(O)CCC2C3CCC4=CC(=O)CCC4=C3C=CC21C` (configuration not stated) [Altrenogest] the “IC50 of cell viability” value was over 46 µM.
`CC(C)C[C@@H](N)C(=O)O` [D-LEUCINE] was tested, and the “IC50 of cell viability” value was over 46 µM.
With `CCCCCC[C@@H](O)C/C=C\CCCCCCCC(=O)O` [POTASSIUM RICINOLEATE] the “IC50 of cell viability” value was over 46 µM.
For `CN(CC1(C)CCCO1)[S+](=O)([O-])c1ccc(Cl)c([S+](N)(=O)[O-])c1` (configuration not stated) [MEFRUSIDE], the “IC50 of cell viability” value was over 46 µM.
In the case of `C=C(C)[C@H]1CN[C@H](C(=O)O)[C@H]1CC(=O)O` [KAINIC ACID], the “IC50 of cell viability” value is reported as over 46 µM.
`CCCN(CCC)c1c([N+](=O)[O-])cc([S+](N)(=O)[O-])cc1[N+](=O)[O-]` [Oryzalin] was tested, and the “IC50 of cell viability” value was over 46 µM.
`IC(I)I` [Iodoform] was tested, and the “IC50 of cell viability” value was over 46 µM.
In the case of `CCC1\C(=N/N=C(C2=CC(=C(OC)C=C2)OC)\C3=C1C=C(OC)C(=C3)OC)C` (configuration not stated) [TOFISOPAM], the “IC50 of cell viability” value is reported as over 46 µM.
In the case of `Cc1ccc2nc(N)nc(O)c2c1Sc1ccncc1` [NOLATREXED], the “IC50 of cell viability” value is reported as over 46 µM.
In the case of `CCC(=O)c1ccc2c(c1)N(CCCN1CCN(CCO)CC1)c1ccccc1S2` [CARPHENAZINE MALEATE], the “IC50 of cell viability” value is reported as over 46 µM.
In the case of `COCCc1ccc(OC[C@H](O)CNC(C)C)cc1.COCCc1ccc(OC[C@H](O)CNC(C)C)cc1.O=C(O)[C@@H](O)[C@@H](O)C(=O)O` (racemic) [Metoprolol-(+,-) (+)-tartrate salt], the “IC50 of cell viability” value is reported as over 46 µM.
In the case of `CC(COc1ccccc1)N(CCCl)Cc1ccccc1` (configuration not stated) [Fenoxibenzamina], the “IC50 of cell viability” value is reported as over 46 µM.
In the case of `CNCCC(Oc1ccccc1C)c1ccccc1` (configuration not stated) [Tomoxetine], the “IC50 of cell viability” value is reported as over 46 µM.
With `C[Se]CCC(N)C(=O)O` (configuration not stated) [SELENOMETHIONINE, SE-75] the “IC50 of cell viability” value was over 46 µM.
In the case of `NNc1nnc(Cc2ccncc2)c2ccccc12` [Picodralazine], the “IC50 of cell viability” value is reported as over 46 µM.
In the case of `[Na+].C[C@]12CC[C@H]3[C@@H](C\C=C/4C[C@H](CC[C@]34C)O[S]([O-])(=O)=O)[C@@H]1CCC2=O` [Dehydroisoandrosterone 3-sulfate sodium], the “IC50 of cell viability” value is reported as over 46 µM.
For `CCOC(=O)C/1=C(COCCN)/N\C(=C(C1C2=C(Cl)C=CC=C2)\C(=O)OC)C` (configuration not stated) [Amlodipine besylate], the “IC50 of cell viability” value was over 46 µM.
For `CCCCCCCCCCCCCCCCCCO` [STEARLY ALCOHOL], the “IC50 of cell viability” value was over 46 µM.
For `CC12NC(Cc3ccccc31)c1ccccc12.O=C(O)/C=C/C(=O)O` (single isomer, unassigned; (-)) [(-)-MK-801 hydrogen maleate], the “IC50 of cell viability” value was over 46 µM.
In the case of `FC(F)(F)c1ccccc1-n1ccnc1` [TRIM], the “IC50 of cell viability” value is reported as over 46 µM.
For `C[N+](C)(C)CC(=O)[O-].Cl` [BETAINE HYDROCHLORIDE], the “IC50 of cell viability” value was over 46 µM.
With `CO/N=C(/C(=O)N[C@@H]1C(=O)N2C(C(=O)[O-])=C(C[n+]3ccn4ncccc43)CS[C@H]12)c1nsc(N)n1` [CEFOZOPRAN HYDROCHLORIDE] the “IC50 of cell viability” value was over 46 µM.
For `NC(N)=O` [Urea], the “IC50 of cell viability” value was over 46 µM.
`COc1ccc(-c2noc(CC(=O)O)c2-c2ccc(OC)cc2)cc1` [MOFEZOLAC] was tested, and the “IC50 of cell viability” value was over 46 µM.
With `C[C@@H]1O[C@@H](O[C@H]2C[C@@H](O)[C@@]3(CO)[C@H]4[C@H](O)C[C@]5(C)[C@H](CC[C@]5(O)[C@H]4CC[C@@]3(O)C2)\C6=C\C(=O)OC6)[C@@H](O)[C@H](O)[C@H]1O` [ouabain] the “IC50 of cell viability” value was over 46 µM.
`CC1(C)S[C@@H]2[C@H](NC(=O)[C@H](NC(=O)N3CCN([S+](C)(=O)[O-])C3=O)c3ccccc3)C(=O)N2[C@H]1C(=O)O` [MEZLOCILLIN SODIUM MONOHYDRATE] was tested, and the “IC50 of cell viability” value was over 46 µM.
In the case of `OCCOCCN1CCN(CC1)C/2=N/C3=CC=CC=C3SC4=CC=CC=C24` [quetiapine], the “IC50 of cell viability” value is reported as over 46 µM.
With `Oc1ccc(Cl)cc1Cc1ccccc1` [Clorophene] the “IC50 of cell viability” value was over 46 µM.
For `CCCC(C)C1(CC)C(=O)NC(=S)NC1=O` (configuration not stated) [THIOPENTAL SODIUM], the “IC50 of cell viability” value was over 46 µM.
In the case of `NCCCC(O)(P(=O)(O)O)P(=O)(O)O` [Alendronate sodium], the “IC50 of cell viability” value is reported as over 46 µM.
With `CCCN(CCC)C(=O)C(CCC(=O)OCCCN1CCN(CCOC(=O)Cc2c(C)n(C(=O)c3ccc(Cl)cc3)c3ccc(OC)cc23)CC1)NC(=O)c1ccccc1` (configuration not stated) [Proglumetacin maleate] the “IC50 of cell viability” value was over 46 µM.
In the case of `[N-]=[N+]=CC(=O)OCC(N)C(=O)O` (configuration not stated) [AZASERINE], the “IC50 of cell viability” value is reported as over 46 µM.
For `CC(=O)NC(CC(C)C)C(=O)O` (stereo in doubt) [ACETYL-L-LEUCINE], the “IC50 of cell viability” value was over 46 µM.
`O=c1[n-]c(=O)n(Cl)c(=O)n1Cl` [Sodium dichloroisocyanurate] was tested, and the “IC50 of cell viability” value was over 46 µM.
With `COCC1=C(C(=O)OC(C)OC(=O)OC(C)C)N2C(=O)C(NC(=O)/C(=N\OC)c3csc(N)n3)C2SC1` (configuration not stated) [Cefpodoxime proxetil] the “IC50 of cell viability” value was over 46 µM.
`CN[C@@H](C)CC\C=C(/C)C.CN[C@@H](C)CC\C=C(/C)C.O[C@@H]([C@@H](O)[C@@H](O)C(O)=O)[C@H](O)C(O)=O` [Isometheptene mucate] was tested, and the “IC50 of cell viability” value was over 46 µM.
`Nc1c[n+](N2CCOCC2)no1` [SIN-1 chloride] was tested, and the “IC50 of cell viability” value was over 46 µM.
`COP(=O)(OC)C(O)C(Cl)(Cl)Cl` (configuration not stated) [Trichlorfon] was tested, and the “IC50 of cell viability” value was over 46 µM.
In the case of `CC[S+](=O)([O-])CCn1c([N+](=O)[O-])cnc1C` [Tinidazole], the “IC50 of cell viability” value is reported as over 46 µM.
